We go through 12 molecules from paper PMC8294059, “Identification and Immune Assessment of T Cell Epitopes in Five Plasmodium falciparum Blood Stage Antigens to Facilitate Vaccine Candidate Selection and Optimization” (Frontiers in Immunology, 2021).

What all share (experiment): biochemical
Common to all, as to format: binding

Test [1] concerns the target T1, HLA-DRB1*0101 (Homo sapiens, UniProt P01903+P01911, A100R/D57E/F55L/F60I/F76Y/I96L/L162R/M171V/P40L/Q125E/R42F/V115G/Y59C).
T1 construct: purchased
Particulars: binding inhibition assay; NB = non-binder (no dose-dependent inhibition); read-out: DRB1*0101 IC50. How it is done: (§1) The binding assay conducted by EpiVax yields an indirect measure of peptide-MHC affinity as it utilizes a competition assay format per the methodology described in Steere et al. ([35]). […] Post incubation, the mixtures are moved to a 96-well plate coated with anti-HLA-DR antibody to capture HLA-peptide complexes. Time-resolved fluorescence measurement of the bound labeled reference peptide complex present in each mixture is detected with a europium-linked probe via fluorescent spectrophotometry using a SpectraMax M5 system. HLA binding affinity of each test peptide is expressed as the percent inhibition of reference peptide binding. Percent inhibition values (across the test peptide titration range) are used to calculate the half maximal inhibitory concentration (IC50) of each test peptide. For these studies, test peptides were assessed using a range of final concentrations from 100,000 nM to 100 nM. The panel of commercially-available HLA-DRB1 allele monomers used includes: *0101, *0301, *0401, *0701, *0801, *1101, *1301 and *1501. EpiVax established HLA-DRB1 binding affinity cutoffs were used to rank the IC50 values.
(§2) In vitro HLA binding assays (step 2 of workflow shown in Figure 1 ) were carried out with the synthesized peptides to verify the EpiMatrix outputs and provide a measure of accuracy for comparing in silico-predicted HLA-DRB1 allele binding to laboratory assessments of HLA-DRB1 allele binding. These assessments were conducted using a competition assay format whereby IC50 values were calculated based on the ability of the test peptide to compete with a labeled, high binding affinity reference peptide for HLA-DRB1 molecule binding. Sequences for the high affinity reference peptides and the negative control peptide, known not to bind any of the HLA-DRB1 molecules, are provided in Table S18 .

The target of test [2] is HLA-DRB1*1301 (Homo sapiens, UniProt P01903+P01911, A100E/A169T/K41T/L162R/M171V/P40S/Q125H/Q178H/Q39Y/Q99D/R42S/S66N/T262R/W38E/Y61H). Particulars: binding inhibition assay; NB = non-binder (no dose-dependent inhibition); read-out: DRB1*1301 IC50. How it is done: as §1, §2
Test [3] deals with T2, HLA-DRB1*1501 (Homo sapiens, UniProt P01903+P01911).
T2 construct: purchased
The conditions noted are these: binding inhibition assay; NB = non-binder (no dose-dependent inhibition); read-out: DRB1*1501 IC50. As for the experimental part: as §1, §2

The target of test [4] is T3, HLA-DRB1*0401 (Homo sapiens, UniProt P01903+P01911, A100K/A169T/F76Y/I96L/K127E/L162R/M171V/N62H/P40V/Q125Y/R42H/S133A/S149N/S66Y/V115G/V209L/W38E).
T3 construct: purchased
The conditions noted are these: binding inhibition assay; NB = non-binder (no dose-dependent inhibition); read-out: DRB1*0401 IC50. How it is done:
as §1, §2

In test [5] the target is HLA-DRB1*0801 (Homo sapiens, UniProt P01903+P01911, A100R/A103L/A169T/D86S/F76Y/H45Y/I96F/K41T/L162R/M171V/P40S/Q125H/Q178H/Q39Y/Q99D/R218S/R42G/S66Y/V115G/W38E). Particulars: binding inhibition assay; NB = non-binder (no dose-dependent inhibition); read-out: DRB1*0801 IC50. As for the experimental part: as §1, §2
Test [6] deals with HLA-DRB1*1101 (Homo sapiens, UniProt P01903+P01911, A100R/A169T/A87E/I96F/K41T/L162R/M171V/P40S/Q125H/Q178H/Q39Y/Q99D/R42S/S66Y/T262R/V115G/W38E). The conditions noted are these: binding inhibition assay; NB = non-binder (no dose-dependent inhibition); read-out: DRB1*1101 IC50. How it is done: as §1, §2
The target in test [7] is HLA-DRB1*0701 (Homo sapiens, UniProt P01903+P01911, A100R/A102G/A103Q/D57E/D86V/E43K/F76Y/K127E/L162R/M171V/P40G/Q125H/Q99D/R33Q/R42Y/R54Q/S133A/S66F/T210M/V115G/Y107V/Y59L/Y89S). Particulars: binding inhibition assay; NB = non-binder (no dose-dependent inhibition); read-out: DRB1*0701 IC50. How it is done:
as §1, §2

Test [8] has as its target HLA-A*0101 (Homo sapiens, UniProt P04439, A114D/A174V/A182V/D101N/D185E/E176A/E190D/L180R/Q94H/R68K/S129P/T187R/V100A/V91M/W191G). Particulars: allele A*0101, fluorescence polarization competition; for IC50: read-out: IC50 (nM), in vitro HLA binding affinity. How it is done:
A cell-free class I HLA binding assay that allows for in vitro quantification of peptide-HLA binding affinity in a competition format was used. In this assay, a fluorescently labeled, high binding, control peptide is loaded onto 384-well ½-area plates along with unlabeled experimental peptides. To remove endogenous peptides and render the HLA A and B molecules receptive to binding, HLA is heated at 53°C for 15 minutes and immediately added to the assay. The mixture is then allowed to stand for three days. Once the mixture has reached steady equilibrium (at 72 hours), displacement of the high binding control peptide is measured through fluorescence polarization. Binding of experimental peptides is expressed as the percent inhibition of the labeled control peptide (experimental fluorescence / control fluorescence, multiplied by 100). The percent inhibition values for each experimental peptide (across a range of molar concentrations) are used to calculate the concentration which inhibits 50% of the labeled control peptide’s specific binding. This value is referred to as the peptide’s IC50.
(Polarisation of emitted light reports the rotation of a fluorescent probe.)

Where a SMILES comes first, the peptide text is derived from it.

Chain of HLA-DRB1*1101 (P01903 26-254 limits assumed, other chains not shown): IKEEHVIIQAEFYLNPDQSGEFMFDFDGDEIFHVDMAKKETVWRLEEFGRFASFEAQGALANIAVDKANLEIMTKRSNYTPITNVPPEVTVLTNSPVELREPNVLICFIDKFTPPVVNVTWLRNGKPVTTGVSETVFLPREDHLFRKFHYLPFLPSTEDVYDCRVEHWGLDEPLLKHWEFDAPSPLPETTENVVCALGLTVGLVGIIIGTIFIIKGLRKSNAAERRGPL

The term IC50 denotes the concentration at which inhibition is half-maximal. In the case of `CC[C@H](C)[C@H](NC(=O)[C@H](CC(=O)O)NC(=O)[C@H](CC(C)C)NC(=O)[C@H](CCCCN)NC(=O)[C@H](CC(N)=O)NC(=O)[C@H](CCC(=O)O)NC(C)=O)C(=O)N[C@@H](CC(C)C)C(=O)N[C@@H](CC(N)=O)C(=O)N[C@@H](CC(N)=O)C(=O)N[C@@H](CO)C(=O)N[C@@H](CCCCN)C(=O)N[C@@H](Cc1ccccc1)C(=O)N[C@@H](CC(N)=O)C(=O)N[C@@H](CCCCN)C(=O)N[C@@H](CCCNC(=N)N)C(=O)N[C@@H](Cc1c[nH]c2ccccc12)C(=O)N[C@@H](CCCCN)C(N)=O` [EBA175_002] (Ac-ENKLDILNNSKFNKRWK-NH2), the IC50 in test [1] is 11.9 µM; in test [2] it was 14.2 µM; in test [3], 13.9 µM; in test [4], over 100 µM.

As for `CC[C@H](C)[C@H](NC(=O)[C@H](Cc1ccccc1)NC(=O)[C@H](Cc1c[nH]cn1)NC(=O)[C@H](CC(=O)O)NC(C)=O)C(=O)N[C@@H](CCC(=O)O)C(=O)N[C@@H](C)C(=O)N[C@@H](CO)C(=O)N[C@@H](CCCCN)C(=O)N[C@@H](CCCCN)C(=O)N[C@@H](CCC(=O)O)C(=O)N[C@@H](CO)C(=O)N[C@@H](CCC(N)=O)C(=O)N[C@@H](CC(C)C)C(=O)N[C@@H](CC(C)C)C(N)=O` [EBA175_006] (Ac-DHFIEASKKESQLL-NH2), the 50% inhibitory concentration (IC50) is 1.76 µM in test [5]; 6.63 µM in test [1]; 2.87 µM in test [6]; 74.6 µM in test [2]; over 100 µM in test [4].

For the molecule `CC[C@H](C)[C@H](NC(=O)[C@H](Cc1ccc(O)cc1)NC(=O)[C@@H](NC(=O)[C@H](CO)NC(=O)[C@H](Cc1c[nH]cn1)NC(C)=O)[C@@H](C)O)C(=O)N[C@@H](CCCCN)C(=O)N[C@@H](CO)C(=O)N[C@@H](Cc1ccc(O)cc1)C(=O)N[C@@H](CC(C)C)C(=O)N[C@@H](CC(N)=O)C(=O)N[C@H](C(=O)N[C@@H](CC(N)=O)C(=O)N[C@H](C(=O)N[C@@H](CC(N)=O)C(=O)N[C@@H](CC(=O)O)C(=O)NCC(=O)N[C@@H](CC(C)C)C(=O)N[C@@H](CCCCN)C(=O)N[C@@H](Cc1ccc(O)cc1)C(N)=O)C(C)C)[C@@H](C)O` [RH5_003] (Ac-HSTYIKSYLNTNVNDGLKY-NH2), the IC50 came to 0.282 µM in test [1]; 58.5 µM in test [7]; 96.5 µM in test [6]; 20.1 µM in test [2]; 0.004 µM in test [3]; 7.45 µM in test [4].

Consider `CSCC[C@H](NC(=O)[C@@H](NC(=O)[C@H](Cc1c[nH]cn1)NC(=O)[C@H](Cc1ccccc1)NC(=O)CNC(=O)[C@H](Cc1c[nH]cn1)NC(=O)[C@H](CCCCN)NC(C)=O)[C@@H](C)O)C(=O)N[C@@H](CC(N)=O)C(=O)N[C@@H](CC(N)=O)C(=O)N[C@@H](CC(C)C)C(=O)N[C@@H](Cc1c[nH]cn1)C(=O)NCC(=O)N[C@@H](CC(=O)O)C(=O)NCC(=O)N[C@H](C(=O)N[C@@H](CO)C(=O)N[C@@H](CCC(=O)O)C(N)=O)C(C)C` [EBA175_016] (Ac-KHGFHTMNNLHGDGVSE-NH2), for which the IC50 in test [1] is 0.16 µM; in test [6], 8.62 µM; in test [2], over 100 µM; in test [3] it was 79 µM; in test [4], 0.458 µM.

As to `N=C(N)NCCC[C@H](NC(=O)[C@H](Cc1ccc(O)cc1)NC(=O)[C@H](CO)NC(=O)[C@H](CC(=O)O)NC(=O)[C@H](CC(=O)O)NC(=O)[C@H](CC(N)=O)NC(=O)[C@H](CCCCN)NC(=O)[C@@H](N)CC(N)=O)C(=O)N[C@@H](Cc1ccc(O)cc1)C(=O)O` [RH5_246] (H-NKNDDSYRY-OH), in test [8], the IC50 stood at 6680 nM.

On to NLFEQLSCY [RH5_338], for which, in test [8], the “IC50 (nM), in vitro HLA binding affinity” value was “Non-Binder”.

With `CC[C@H](C)[C@H](NC(=O)[C@H](Cc1ccccc1)NC(=O)[C@H](CCCCN)NC(=O)[C@@H](NC(=O)[C@@H](NC(=O)[C@H](CC(=O)O)NC(=O)[C@@H](NC(=O)[C@@H](N)Cc1ccc(O)cc1)[C@@H](C)CC)[C@@H](C)O)[C@@H](C)CC)C(=O)N[C@@H](Cc1c[nH]cn1)C(=O)N[C@@H](CCCCN)C(=O)O` [RH5_406] (H-YIDTIKFIHK-OH), in test [8], the half-inhibitory concentration (IC50) was found to be 1510 nM.

With `CC[C@H](C)[C@H](NC(=O)[C@H](CC(=O)O)NC(=O)[C@H](CC(=O)O)NC(=O)[C@H](CCCCN)NC(=O)[C@H](CCC(=O)O)NC(=O)[C@H](CCC(=O)O)NC(=O)[C@H](CCC(=O)O)NC(=O)[C@@H](NC(=O)[C@@H](N)CO)[C@@H](C)O)C(=O)N[C@@H](CCCCN)C(=O)O` [RH5_46] (H-STEEEKDDIK-OH), the IC50 in test [8] stood at 6830 nM.

With DSCVPNTNEY [RIPR_0976], the “IC50 (nM), in vitro HLA binding affinity” value in test [8] is reported as “Non-binder”.

As for `CC(C)[C@H](NC(=O)[C@H](CC(N)=O)NC(=O)[C@H](CCCCN)NC(=O)[C@H](Cc1ccc(O)cc1)NC(=O)[C@H](CC(=O)O)NC(=O)[C@H](CCC(=O)O)NC(=O)[C@@H](N)CC(N)=O)C(=O)N[C@@H](CC(=O)O)C(=O)N[C@@H](Cc1ccc(O)cc1)C(=O)O` [RH5_131] (H-NEDYKNVDY-OH), the 50% inhibitory concentration (IC50) in test [8] is 8920 nM.

Regarding `CC(C)[C@H](NC(=O)[C@H](CC(N)=O)NC(=O)[C@H](CCCCN)NC(=O)[C@H](Cc1ccc(O)cc1)NC(=O)[C@H](CC(=O)O)NC(=O)[C@H](CCC(=O)O)NC(=O)[C@H](CC(N)=O)NC(=O)[C@@H](N)CC(N)=O)C(=O)N[C@@H](CC(=O)O)C(=O)N[C@@H](Cc1ccc(O)cc1)C(=O)O` [RH5_130] (H-NNEDYKNVDY-OH), in test [8], the IC50 turned out to be 7990 nM.

Turning to `CC(=O)N[C@@H](CCC(=O)O)C(=O)N[C@@H](CCC(=O)O)C(=O)NCC(=O)N[C@@H](Cc1ccc(O)cc1)C(=O)N[C@@H](CCCCN)C(=O)N[C@@H](CC(N)=O)C(=O)N[C@H](C(=O)N[C@@H](CCCCN)C(=O)NCC(=O)N[C@@H](CCCCN)C(=O)N[C@@H](CS)C(=O)N[C@H](C(=O)N1CCC[C@H]1C(=O)N[C@@H](CC(=O)O)C(=O)N[C@@H](CC(N)=O)C(=O)N[C@@H](CCCCN)C(N)=O)C(C)C)C(C)C` [RIPR_015] (Ac-EEGYKNVKGKCVPDNK-NH2), the IC50 in test [1] was 1.81 µM; in test [7], 9.28 µM; in test [6], 32 µM; in test [2] it was over 100 µM; in test [3], over 100 µM; in test [4], over 100 µM.
